{"source": "patent US20100056513A1", "about": "“STEREOSPECIFICALLY SUBSTITUTED BENZO[1,3]DIOXOLYL DERIVATIVES” (priority 2005, published 2010)", "key": {"[1]": {"target": "T1, human cannabis CB1 receptor (Homo sapiens, UniProt P21554)", "T1 construct": "expressed in transfected cells; host or cells: human embryonic kidney (HEK) cells, Semliki Forest Virus system, membrane preparation", "T1 sequence (P21554 whole entry)": "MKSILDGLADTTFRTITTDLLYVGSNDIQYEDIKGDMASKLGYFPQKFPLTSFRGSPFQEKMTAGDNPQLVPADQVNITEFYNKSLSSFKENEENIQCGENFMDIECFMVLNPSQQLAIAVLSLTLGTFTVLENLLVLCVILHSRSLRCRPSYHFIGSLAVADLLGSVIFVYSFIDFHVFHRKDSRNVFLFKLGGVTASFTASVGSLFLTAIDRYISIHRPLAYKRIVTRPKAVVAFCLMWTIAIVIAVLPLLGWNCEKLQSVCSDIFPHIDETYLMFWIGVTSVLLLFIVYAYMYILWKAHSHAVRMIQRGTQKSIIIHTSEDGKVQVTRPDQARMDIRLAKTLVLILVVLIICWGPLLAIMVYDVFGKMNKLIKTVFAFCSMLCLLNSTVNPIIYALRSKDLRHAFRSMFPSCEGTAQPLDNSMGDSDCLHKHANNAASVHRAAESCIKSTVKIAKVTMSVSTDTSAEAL", "assay": "CB1 receptor affinity, [3H]-CP-55,940 radioligand binding on HEK cell membranes", "protocol": "The affinity of the compounds of the invention for cannabinoid CB1 receptors was determined using membrane preparations of human embryonic kidney (HEK) cells in which the human cannabis CB1 receptor is transiently transfected using the Semliki Forest Virus system in conjunction with [3H]-CP-55,940 as radioligand. After incubation of a freshly prepared cell membrane preparation with the [3H]-ligand, with or without addition of compounds of the invention, separation of bound and free ligand was performed by filtration over glassfiber filters. Radioactivity on the filter was measured by liquid scintillation counting.\nThe data is determined with the experimental conditions described in Devane et. al. Mol. Pharmacol. 34 (1988) 605-613."}, "[2]": {"system": "obese Spague-Dawley rats fed a high fat diet", "assay": "Body weight reduction in obese rats fed a high fat diet", "type": "in vivo", "conditions": "over 17 days", "description": "In vivo efficacy in the hypothermia model translated into efficacy in a disease related model, namely body weight reduction in obese Spague-Dawley rats fed a high fat diet (in analogy to Vickers et al. Psychopharmacology 2003, 167, 103-11 for obese fa/fa rats)."}, "NMRI mice": {"system": "NMRI mice", "assay": "CP 55,940-induced hypothermia in NMRI mice", "type": "in vivo", "conditions": "po, CP 55,940 0.3 mg/kg i.v.; for Hypothermia in NMRI mice ID50 or minimum effective dose (MED), result in words: highest dose 30 mg/kg", "protocol": "Effect of CB1 Receptor Antagonist/Inverse Agonist on CP 55,940-Induced Hypothermia in NMRI Mice\nMale NMRI mice were used in this study and were obtained from Research Consulting Company Ltd (RCC) of Füllinsdorf (Switzerland). Mice, weighing 30-31 g were used in this study. Ambient temperature is approximately 20-21° C. and relative humidity 55-65%. A 12 hours light-dark cycle is maintained in the rooms with all tests being performed during the light phase. Access to tap water and food are ad libitum.\nAll measurements were made between 12:00 am and 5:00 pm. Mice were brought in this environment and habituated for at least two hours before the start of the experiment. They had always free access to food and water. For each dose, 8 mice were used. Rectal body temperature measurements were recorded by mean of a rectal probe (RET2 of Physitemp) and digital thermometer (Digi-sense n°8528-20 of Cole Parmer, Chicago USA). The probe was inserted about 3.5 cm in each mouse.\nThe body temperature was taken 15 min before administration of either Vehicle or CB1 receptor antagonist/inverse agonist. 30 or 90 min after i.p. or p.o. administration of this compound, respectively, rectal body temperature was recorded in order to evaluate any influence of the compound itself. The CB receptor agonist CP 55,940 (0.3 mg/kg) was immediately administered intravenously, then 20 min after i.v. administration of CP 55940, body temperature was again measured."}, "[3]": {"conditions": "doses of 10 and 20 mg daily; cited from earlier work"}, "[4]": {"conditions": "Table 1, read-out: IC50 (affinity for the CB1 receptor)"}, "[5]": {"conditions": "Table 2, read-out: CB1 receptor affinity IC50"}}, "note": "Read-outs that look alike come from different tables or passages of the source."}
{"smiles": "O=C(c1cc2c(cc1F)O[C@](c1ccc(F)cc1)(c1ccc(Cl)cc1Cl)O2)N1CCOCC1", "note": "[R-(+)-[2-(2,4-Dichloro-phenyl)-2-(4-fluoro-phenyl)-6-fluoro-benzo[1,3]dioxol-5-yl]-morpholin-4-yl-methanone]", "values": [{"measurement": "IC50", "setting": "[1]; [4]", "value": 7, "unit": "nM"}]}
{"smiles": "O=C(c1cc2c(cc1F)O[C@](c1ccc(Cl)cc1)(c1ccc(Cl)cc1Cl)O2)N1CCOCC1", "note": "[R-(−)-[2-(4-Chloro-phenyl)-2-(2,4-dichloro-phenyl)-6-fluoro-benzo[1,3]dioxol-5-yl]-morpholin-4-yl-methanone]", "values": [{"measurement": "IC50", "setting": "[1]; [4]", "value": 2.5, "unit": "nM"}, {"measurement": "BW reduction", "setting": "[2]; once daily 3 mg/kg po", "value": 9.7, "unit": "%"}, {"measurement": "Hypothermia in NMRI mice ID50", "setting": "NMRI mice", "value": "ID50: 1.6 mg/kg po"}]}
{"smiles": "O=C(c1cc2c(cc1F)O[C@@](c1ccc(Cl)cc1)(c1ccc(Cl)cc1Cl)O2)N1CCOCC1", "note": "[S-(+)[2-(4-Chloro-phenyl)-2-(2,4-dichloro-phenyl)-6-fluoro-benzo[1,3]dioxol-5-yl]-morpholin-4-yl-methanone]", "values": [{"measurement": "IC50", "setting": "[1]; [4]", "value": 17, "unit": "nM"}, {"measurement": "IC50", "setting": "[1]; [5]", "value": 17, "unit": "nM"}, {"measurement": "Hypothermia in NMRI mice minimum effective dose (MED)", "setting": "NMRI mice", "value": "MED: 10 mg/kg po"}]}
{"smiles": "O=C(c1cc2c(cc1F)O[C@@](c1ccc(F)cc1)(c1ccc(Cl)cc1Cl)O2)N1CCOCC1", "note": "[S-(−)[2-(2,4-Dichloro-phenyl)-2-(4-fluoro-phenyl)-6-fluoro-benzo[1,3]dioxol-5-yl]-morpholin-4-yl-methanone]", "values": [{"measurement": "IC50", "setting": "[1]; [4]", "value": 75, "unit": "nM"}]}
{"smiles": "Cc1c(C(=O)NN2CCCCC2)nn(-c2ccc(Cl)cc2Cl)c1-c1ccc(Cl)cc1", "note": "[rimonabant, reference compound]", "values": [{"measurement": "BW reduction", "setting": "[2]; once daily 10 mg/kg po", "value": 6.6, "unit": "%"}, {"measurement": "body weight compared to placebo", "setting": "[3]", "value": "significantly reduced body weight"}]}
{"smiles": "O=C(c1cc2c(cc1F)O[C@@](c1ccccc1F)(c1ccc(Cl)cc1Cl)O2)N1CCOCC1", "note": "[S-(−)-[2-(2,4-dichloro-phenyl)-6-fluoro-2-(2-fluoro-phenyl)-benzo[1,3]dioxol-5-yl]-morpholin-4-yl-methanone]", "values": [{"measurement": "IC50", "setting": "[1]; [4]", "value": 33, "unit": "nM"}, {"measurement": "Hypothermia in NMRI mice ID50 or minimum effective dose (MED), result in words", "setting": "NMRI mice", "value": "inactive at 30"}]}
{"smiles": "O=C(c1cc2c(cc1F)O[C@](c1ccccc1F)(c1ccc(Cl)cc1Cl)O2)N1CCOCC1", "note": "[R-(+)[2-(2,4-Dichloro-phenyl)-6-fluoro-2-(2-fluoro-phenyl)-benzo[1,3]dioxol-5-yl]-morpholin-4-yl-methanone]", "values": [{"measurement": "IC50", "setting": "[1]; [4]", "value": 5, "unit": "nM"}, {"measurement": "Hypothermia in NMRI mice ID50", "setting": "NMRI mice", "value": "ID50: 4.0 mg/kg po"}]}
{"smiles": "O=C(c1cc2c(cc1F)OC(c1ccc(Cl)cc1)(c1ccc(Cl)cc1)O2)N1CCOCC1", "note": "[Meso-[2,2-Bis-(4-chloro-phenyl)-6-fluoro-benzo[1,3]dioxol-5-yl]-morpholin-4-yl-methanone, reference compound]", "values": [{"measurement": "IC50", "setting": "[1]; [5]", "value": 26, "unit": "nM"}, {"measurement": "Hypothermia in NMRI mice ID50 or minimum effective dose (MED), result in words", "setting": "NMRI mice", "value": "inactive at 30"}]}
